Holding throughout (assay type): biochemical
The target in one assay is T1, Axl (h) (Homo sapiens, UniProt P30530).
T1 sequence (P30530 26-894): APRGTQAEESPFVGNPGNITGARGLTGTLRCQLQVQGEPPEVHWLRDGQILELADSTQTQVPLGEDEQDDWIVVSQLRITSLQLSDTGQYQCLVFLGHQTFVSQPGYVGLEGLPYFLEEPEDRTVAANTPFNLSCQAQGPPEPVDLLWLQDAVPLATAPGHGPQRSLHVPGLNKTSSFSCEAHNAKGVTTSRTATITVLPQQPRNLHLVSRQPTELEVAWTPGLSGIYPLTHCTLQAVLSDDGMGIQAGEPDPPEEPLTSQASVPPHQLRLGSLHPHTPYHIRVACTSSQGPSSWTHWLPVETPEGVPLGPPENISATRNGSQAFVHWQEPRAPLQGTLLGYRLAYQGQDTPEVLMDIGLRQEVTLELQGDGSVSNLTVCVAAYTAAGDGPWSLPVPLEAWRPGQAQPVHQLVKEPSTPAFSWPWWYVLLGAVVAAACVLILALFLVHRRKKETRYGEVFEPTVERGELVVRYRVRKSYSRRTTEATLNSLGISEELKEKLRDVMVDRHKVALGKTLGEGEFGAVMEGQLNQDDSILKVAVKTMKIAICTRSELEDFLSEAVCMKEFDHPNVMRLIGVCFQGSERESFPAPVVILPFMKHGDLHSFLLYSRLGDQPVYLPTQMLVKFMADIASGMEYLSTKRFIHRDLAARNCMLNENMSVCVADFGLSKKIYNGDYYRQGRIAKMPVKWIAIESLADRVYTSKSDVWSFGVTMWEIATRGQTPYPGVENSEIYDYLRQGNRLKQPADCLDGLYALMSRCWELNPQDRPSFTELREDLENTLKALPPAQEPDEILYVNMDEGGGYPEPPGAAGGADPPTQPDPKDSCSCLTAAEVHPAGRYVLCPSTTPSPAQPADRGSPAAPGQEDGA
In words: Enzymatic activity assay, Axl (h), [γ-33P]-ATP filter assay. The note with it: 10 μM ATP, 40 min room temperature; read-out: Inhibitory activity IC50 Axl(h). On the procedure:
(§1) Compounds were each dissolved in 100% DMSO to prepare stock solutions with a maximum concentration of 500 μM.
(§2) Compound working solutions (50×) were prepared by diluting a compound stock solution to a final concentration of 500, 150, 50, 15, 5, 1.5, 0.5, 0.15 and 0.05 μM.
An enzyme solution with a final concentration of 1.7 nM was prepared by dissolving Axl (h) enzyme in a mixture of 8 mM MOPS (pH 7.0), 0.2 mM EDTA and 250 μM KKSRGDYMTMQIG. A Mg/ATP mixture of 10 mM magnesium acetate and 10 μM [γ-^33P]-ATP was used to activate the enzymatic reaction.
(§3) A compound working solution was added to a 384-well plate, with final concentrations of 10,000, 3,000, 1,000, 300, 100, 30, 10, 3 and 1 nM, and then different enzymatic reaction solutions prepared according to the above conditions were added. The reaction solutions were incubated at room temperature for 40 min, and then 0.5% phosphoric acid solutions were added to terminate the reaction. 10 μL of the reaction solution was added dropwise to P30 filter paper, washed 4 times with a 0.425% phosphoric acid solution and once with methanol, and then placed in a scintillation counter for detection. Gray analysis was performed on the results with Image J software, and IC50 values were calculated with GraphPad 5.0 software.

In the next assay the target is T2, Tyro-3 (h) (Homo sapiens, UniProt Q06418).
T2 sequence (Q06418 41-890): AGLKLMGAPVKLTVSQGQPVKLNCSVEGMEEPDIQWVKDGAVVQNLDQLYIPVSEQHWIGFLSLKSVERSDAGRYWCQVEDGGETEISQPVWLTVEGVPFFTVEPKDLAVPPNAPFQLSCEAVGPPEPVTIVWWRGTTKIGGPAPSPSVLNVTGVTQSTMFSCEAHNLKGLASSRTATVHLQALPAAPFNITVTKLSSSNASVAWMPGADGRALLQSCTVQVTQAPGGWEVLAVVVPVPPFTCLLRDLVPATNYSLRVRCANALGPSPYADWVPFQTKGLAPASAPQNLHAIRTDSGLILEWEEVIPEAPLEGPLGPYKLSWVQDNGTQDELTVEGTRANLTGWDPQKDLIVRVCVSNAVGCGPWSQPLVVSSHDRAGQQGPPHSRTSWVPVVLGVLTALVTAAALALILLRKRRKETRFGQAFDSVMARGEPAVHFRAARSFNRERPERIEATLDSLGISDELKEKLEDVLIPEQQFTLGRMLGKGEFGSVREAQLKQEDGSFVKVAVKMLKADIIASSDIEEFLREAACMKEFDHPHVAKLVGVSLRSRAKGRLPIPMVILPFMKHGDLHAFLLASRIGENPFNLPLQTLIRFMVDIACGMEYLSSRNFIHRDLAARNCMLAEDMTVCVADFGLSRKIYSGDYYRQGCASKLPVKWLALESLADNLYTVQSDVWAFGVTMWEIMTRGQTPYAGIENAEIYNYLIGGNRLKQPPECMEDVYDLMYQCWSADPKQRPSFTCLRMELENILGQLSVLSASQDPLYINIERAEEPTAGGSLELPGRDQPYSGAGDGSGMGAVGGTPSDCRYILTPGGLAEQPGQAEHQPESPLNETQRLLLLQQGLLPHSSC
In words: Enzymatic activity assay, Tyro-3 (h), [γ-33P]-ATP filter assay. The note with it: 10 μM ATP, 40 min room temperature; read-out: Inhibitory activity IC50 Tyro-3(h). On the procedure: as §1, §2
An enzyme solution with a final concentration of 38 nM was prepared by dissolving Tyro3 (h) enzyme in a mixture of 8 mM MOPS (pH 7.0), 0.2 mM EDTA, 1 mM MnCl2 and 250 μM KVEKIGEGTYGVVYK. A Mg/ATP mixture of 10 mM magnesium acetate and 10 μM [γ-^33P]-ATP was used to activate the enzymatic reaction.
as §3

For a further assay, the target named is T3, Mer (h) (Homo sapiens, UniProt Q12866).
T3 sequence (Q12866 21-999): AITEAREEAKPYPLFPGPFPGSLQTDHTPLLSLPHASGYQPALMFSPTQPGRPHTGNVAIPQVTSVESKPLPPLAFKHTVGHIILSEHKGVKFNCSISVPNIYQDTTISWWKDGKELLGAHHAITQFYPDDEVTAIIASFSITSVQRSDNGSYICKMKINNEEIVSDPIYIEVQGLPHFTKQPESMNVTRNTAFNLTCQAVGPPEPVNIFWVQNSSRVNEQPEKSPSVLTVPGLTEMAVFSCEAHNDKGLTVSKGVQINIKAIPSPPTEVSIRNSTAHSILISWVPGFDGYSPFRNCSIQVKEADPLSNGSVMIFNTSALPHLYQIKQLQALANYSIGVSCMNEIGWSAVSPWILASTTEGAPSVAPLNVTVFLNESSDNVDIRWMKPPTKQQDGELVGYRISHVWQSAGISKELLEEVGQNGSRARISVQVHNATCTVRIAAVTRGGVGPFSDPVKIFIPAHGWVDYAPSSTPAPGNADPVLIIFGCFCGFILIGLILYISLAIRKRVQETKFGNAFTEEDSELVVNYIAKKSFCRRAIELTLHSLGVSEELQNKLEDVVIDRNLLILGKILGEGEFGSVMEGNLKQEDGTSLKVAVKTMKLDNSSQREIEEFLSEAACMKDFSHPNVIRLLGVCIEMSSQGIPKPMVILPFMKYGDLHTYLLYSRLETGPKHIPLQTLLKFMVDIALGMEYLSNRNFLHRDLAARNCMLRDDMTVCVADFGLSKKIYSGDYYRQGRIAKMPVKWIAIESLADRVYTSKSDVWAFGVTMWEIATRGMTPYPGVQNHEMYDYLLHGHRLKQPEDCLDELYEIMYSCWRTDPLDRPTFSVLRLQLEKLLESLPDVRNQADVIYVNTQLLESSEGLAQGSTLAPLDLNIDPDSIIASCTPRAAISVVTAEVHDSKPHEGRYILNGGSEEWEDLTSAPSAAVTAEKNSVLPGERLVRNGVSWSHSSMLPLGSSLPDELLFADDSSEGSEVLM
In words: Enzymatic activity assay, Mer (h), [γ-33P]-ATP filter assay. The note with it: 10 μM ATP, 40 min room temperature; read-out: Inhibitory activity IC50 Mer(h). How it is done: as §1, §2
An enzyme solution with a final concentration of 3.1 nM was prepared by dissolving Mer (h) enzyme in a mixture of 8 mM MOPS (pH 7.0), 0.2 mM EDTA, 30 mM NaCl and 250 μM GGMEDIYFEFMGGKKK. A Mg/ATP mixture of 10 mM magnesium acetate and 10 μM [γ-^33P]-ATP was used to activate the enzymatic reaction.
as §3

Structures are written as SMILES.

As to `COc1cc2nccc(Oc3ccc(NC(=O)c4nn(CC5CCSCC5)cc(-c5ccc(C)cc5)c4=O)nc3)c2cc1OC` [Compound 21, N-(5-((6,7-dimethoxyquinolin-4-yl)oxy)pyridin-2-yl)-4-oxo-1-((tetrahydro-2H-thiopyran-4-yl)methyl)-5-(p-tolyl)-1,4-dihydropyridazin-3-carboxamide], the IC50 (as a rule, the point on the concentration scale where inhibition reaches its midpoint) on Axl (h) came to 19 nM; on Tyro-3 (h), 29 nM; on Mer (h) it was 1 nM.

Turning to `COc1cc2nccc(Oc3cnc(NC(=O)c4cn(CC5CCSCC5)cc(-c5ccc(C)cc5)c4=O)nc3)c2cc1OC` [Compound 22, N-(5-((6,7-dimethoxyquinolin-4-yl)oxy)pyrimidin-2-yl)-4-oxo-1-((tetrahydro-2H-thiopyran-4-yl)methyl)-5-(p-tolyl)-1,4-dihydropyridin-3-carboxamide], the half-inhibitory concentration (IC50) is 16 nM on Axl (h), 103 nM on Tyro-3 (h) and 5 nM on Mer (h).

In the case of `COc1cc2nccc(Oc3cnc(NC(=O)c4nn(CC5CCSCC5)cc(-c5ccc(C)cc5)c4=O)nc3)c2cc1OC` [Compound 23, N-(5-((6,7-dimethoxyquinolin-4-yl)oxy)pyrimidin-2-yl)-4-oxo-1-((tetrahydro-2H-thiopyran-4-yl)methyl)-5-(p-tolyl)-1,4-dihydropyridazin-3-carboxamide], the half-maximal inhibitory concentration (IC50) at Axl (h) turned out to be 9 nM; at Tyro-3 (h), 33 nM; on Mer (h) it was 8 nM.

`COc1ccc(-c2cnc(N)c(-c3ccc(NC(=O)c4cc(-c5ccc(C)cc5)cn(CC5CCOCC5)c4=O)cc3)c2)cc1OC` [Compound 35, N-(4-(2-amino-5-(3,4-dimethoxyphenyl)pyridin-3-yl)phenyl)-2-oxo-1-((tetrahydro-2H-pyran-4-yl)methyl)-5-(p-tolyl)-1,2-dihydropyridin-3-carboxamide]: the half-inhibitory concentration (IC50) at Axl (h) was found to be 44 nM.

On to `COc1ccc(-c2cnc(N)c(-c3ccc(NC(=O)c4cn(CC5CCOCC5)c(=O)n(-c5ccc(C)cc5)c4=O)cc3)c2)cc1OC` [Compound 37, N-(4-(2-amino-5-(3,4-dimethoxyphenyl)pyridin-3-yl)phenyl)-2,4-dioxo-1-((tetrahydro-2H-pyran-4-yl)methyl)-3-(p-tolyl)-1,2,3,4-tetrahydropyrimidin-5-carboxamide], for which, on Axl (h), the IC50 was 57 nM.

As to `COc1cc2nccc(O[C@H]3CC[C@@H](NC(=O)c4cn(CC5CCOCC5)cc(-c5ccc(C)cc5)c4=O)CC3)c2cc1OC` [Compound 38, N-((cis)-4-((6,7-dimethoxyquinolin-4-yl)oxy)cyclohexyl)-4-oxo-1-((tetrahydro-2H-pyran-4-yl)methyl)-5-(p-tolyl)-1,4-dihydropyridin-3-carboxamide], at Axl (h), the IC50 amounted to 22 nM.
